# Experimental data: US8802692B2, “Synergistic effects between sphingosine-1-phosphate receptor antagonists and antimicrotubule agents” (Exelixis, Inc., priority 2008, dated 2014)
# Legend:
# Assay type in all cases: in vivo, Nude mice
# [1] = system: human MDA-MB-231 breast cancer cells (ATCC#HTB-26); experiment: MDA-MB-231 breast cancer xenograft, S1P1R antagonist + docetaxel; conditions: docetaxel alone 7 mg/kg q3d ip; start 96 mgs
# Protocol: In this experiment, a maximum efficacy dose of an S1P1R receptor antagonist was used with an optimal dose of docetaxol (Haorui Pharma Chem, Inc; CAS#114977-28-5). Compound #2, 50, 52, or 75 were used in these experiments. Nude mice (athymic female mice, Taconic Farms, Inc., 10 animals per group) were inoculated subcutaneously with human MDA-MB-231 breast cancer cells (ATCC#HTB-26) (1×10^6 cells per animal). After tumors were allowed to grow for 17 days, one group of animals was treated with docetaxel at a dose of 7 mg/kg q3d ip. One group of animals was treated with a specific dose of S1P1R receptor antagonist and the same dose of docetaxel using the same schedule used for the individual docetaxel group. Finally, a control group was treated with the vehicles used for each agent individually. Tumor dimensions were measured by calipers and then converted to weight using the formula: tumor weight (mg)=[tumor volume=length (mm)×width^2(mm^2)]/2. Animals were also monitored for weight loss as an indicator of signs of toxicity. The S1P1R receptor antagonist was formulated in a composition containing 10% NMP (n-methyl pyrrolidone)+90% corn oil. […]
# Cells were inoculated subcutaneously on day 0 and allowed to grow for 17 days. […] Dosing continued for 7 cycles (q3d) and tumors in each of the three groups were measured and averaged. […]
# [2] = system: human non-small cell lung carcinoma cells (ATCC #HTB-56); experiment: Non-small cell lung carcinoma xenograft (Calu-6 XN model), S1P1R antagonist + paclitaxel; conditions: paclitaxel alone 15 mg/kg q3d ip; dosing day 9 to day 31; control about 1500 mgs
# Protocol: In this experiment, a maximum efficacy dose of an S1P1R receptor antagonist was used with an optimal dose of paclitaxel (MP Biomedicals cat #193532). Nude mice (athymic female mice, Taconic Farms, Inc., 10 animals per group) were inoculated subcutaneously with human non-small cell lung carcinoma cells (ATCC #HTB-56) (1×10^6 cells per animal). After tumors were allowed to grow for 9 days, one group of animals was treated with a S1P1R receptor antagonist (100 mg/kg qd po). A second group of animals was treated with paclitaxel at a dose of 15 mg/kg q3d ip. A third group of animals was treated with a S1P1R receptor antagonist and paclitaxel using the same dose and schedule used for the individual agents. A fourth control group was treated with the vehicles used for each agent individually. Tumor dimensions were measured by calipers and then converted to weight using the formula: tumor weight (mg)=[tumor volume=length (mm)×[…]]/2. Animals were also monitored for weight loss as an indicator of signs of toxicity. […]
# Cells were inoculated subcutaneously on day 0 and allowed to grow for 9 days. […] Dosing continued until day 31 and tumors from some animals in each of the four groups were measured and averaged. Some animals in the paclitaxel group and the combined treatment group were monitored after treatment stopped for a period of time. […]
# [3] = system: human MDA-MB-231 cells breast cancer cells (ATCC #HTB-26); experiment: MDA-MB-231 breast cancer xenograft, S1P1R antagonist + paclitaxel; conditions: paclitaxel alone 7.5 mg/kg q3d ip; start 100 mgs
# Protocol: In this experiment, 4 different doses of an S1P1R receptor antagonist, 0.3 mgs/kg, 3 mgs/kg, 10 mgs/kg or 30 mgs/kg was used with an optimal dose of paclitaxel (MP Biomedicals cat #193532). Nude mice (athymic female mice, Taconic Farms, Inc., 10 animals per group) were inoculated subcutaneously with human MDA-MB-231 cells breast cancer cells (ATCC #HTB-26) (1×10^6 cells per animal). After tumors were allowed to grow for 21 days, one group of animals was treated with paclitaxel at a dose of 7.5 mg/kg q3d ip. Four groups of animals were treated with a specific concentration of S1P1R receptor antagonist and the same concentration of paclitaxel using the same schedule used for the individual paclitaxel group. Finally, a control group was treated with the vehicles used for each agent individually. Tumor dimensions were measured by calipers and then converted to weight using the formula: tumor weight (mg)=[tumor volume=length (mm)×[…]]/2. Animals were also monitored for weight loss as an indicator of signs of toxicity. The S1P1R Receptor antagonist was formulated in a compostion containing 10% NMP (n-methyl pyrrolidone)+90% corn oil. […]
# Cells were inoculated subcutaneously on day 0 and allowed to grow for 21 days. […] Dosing continued for 19 days and tumors in each of the four groups were measured and averaged. […]
# [4] = system: human MDA-MB-231 breast cancer cells (ATCC# HTB-26); experiment: MDA-MB-231 breast cancer xenograft, S1P1R antagonist + vincristine; conditions: start 95 mgs
# Protocol: In this experiment, a maximum efficacy dose of an S1P1R receptor antagonist was used with doses of vincristine (Yes Pharma, Ltd., CAS#2068-78-2, Lot#80702). Compound #2, 50, 52, or 75 were used in these experiments. Nude mice (athymic female mice, Taconic Farms, Inc., 10 animals per group) were inoculated subcutaneously with human MDA-MB-231 breast cancer cells (ATCC# HTB-26) (1×10^6 cells per animal). After tumors were allowed to grow for 19 days, two groups of animals were treated with vincristine at doses of 0.1 or 1 mg/kg q3d iv. One group of animals was treated with a specific concentration of S1P1R receptor antagonist. Two groups of animals were treated with a specific dose of S1P1R receptor antagonist and the same dose of vincristine using the same schedule used for the individual vincristine groups. Finally, a control group was treated with the vehicles used for each agent individually. Tumor dimensions were measured by calipers and then converted to weight using the formula: tumor weight (mg)=[tumor volume=length (mm)×width^2(mm^2)]/2. Animals were also monitored for weight loss as an indicator of signs of toxicity. […]
# Cells were inoculated subcutaneously on day 0 and allowed to grow for 19 days. […] Dosing continued for 8 cycles (q3d) and tumors in each of the six groups were measured and averaged. […]
structure (smiles),measurement,setting,value
CC(=O)O[C@@]12CO[C@@H]1C[C@H](O)[C@@]1(C)C(=O)[C@H](O)C3=C(C)[C@@H](OC(=O)[C@H](O)[C@@H](NC(=O)OC(C)(C)C)c4ccccc4)C[C@@](O)([C@@H](OC(=O)c4ccccc4)[C@H]21)C3(C)C [docetaxel],average tumor weight after 7 cycles of treatment,[1],about 310 mgs
CC(=O)O[C@H]1C(=O)[C@@]2(C)[C@H]([C@H](OC(=O)c3ccccc3)[C@]3(O)C[C@H](OC(=O)[C@H](O)[C@@H](NC(=O)c4ccccc4)c4ccccc4)C(C)=C1C3(C)C)[C@]1(OC(C)=O)CO[C@@H]1C[C@@H]2O [paclitaxel],average tumor weight after treatment,[2],about 550 mgs
same,average tumor weight after 19 days of treatment,[3],about 325 mgs
CC[C@]1(O)C[C@H]2CN(CCc3c([nH]c4ccccc34)[C@@](C(=O)OC)(c3cc4c(cc3OC)N(C=O)[C@H]3[C@@](O)(C(=O)OC)[C@H](OC(C)=O)[C@]5(CC)C=CCN6CC[C@]43[C@@H]65)C2)C1 [vincristine],average tumor weight after 8 cycles of treatment,[4]; vincristine alone 0.1 mg/kg q3d iv,659 mg
same,average tumor weight after 8 cycles of treatment,[4]; vincristine alone 1 mg/kg q3d iv,26 mg
